For the assay, the target named is T1, JAK3 kinase (Homo sapiens, UniProt P52333).
T1 construct: purchased Carna 08-046
T1 sequence (P52333 1-1124): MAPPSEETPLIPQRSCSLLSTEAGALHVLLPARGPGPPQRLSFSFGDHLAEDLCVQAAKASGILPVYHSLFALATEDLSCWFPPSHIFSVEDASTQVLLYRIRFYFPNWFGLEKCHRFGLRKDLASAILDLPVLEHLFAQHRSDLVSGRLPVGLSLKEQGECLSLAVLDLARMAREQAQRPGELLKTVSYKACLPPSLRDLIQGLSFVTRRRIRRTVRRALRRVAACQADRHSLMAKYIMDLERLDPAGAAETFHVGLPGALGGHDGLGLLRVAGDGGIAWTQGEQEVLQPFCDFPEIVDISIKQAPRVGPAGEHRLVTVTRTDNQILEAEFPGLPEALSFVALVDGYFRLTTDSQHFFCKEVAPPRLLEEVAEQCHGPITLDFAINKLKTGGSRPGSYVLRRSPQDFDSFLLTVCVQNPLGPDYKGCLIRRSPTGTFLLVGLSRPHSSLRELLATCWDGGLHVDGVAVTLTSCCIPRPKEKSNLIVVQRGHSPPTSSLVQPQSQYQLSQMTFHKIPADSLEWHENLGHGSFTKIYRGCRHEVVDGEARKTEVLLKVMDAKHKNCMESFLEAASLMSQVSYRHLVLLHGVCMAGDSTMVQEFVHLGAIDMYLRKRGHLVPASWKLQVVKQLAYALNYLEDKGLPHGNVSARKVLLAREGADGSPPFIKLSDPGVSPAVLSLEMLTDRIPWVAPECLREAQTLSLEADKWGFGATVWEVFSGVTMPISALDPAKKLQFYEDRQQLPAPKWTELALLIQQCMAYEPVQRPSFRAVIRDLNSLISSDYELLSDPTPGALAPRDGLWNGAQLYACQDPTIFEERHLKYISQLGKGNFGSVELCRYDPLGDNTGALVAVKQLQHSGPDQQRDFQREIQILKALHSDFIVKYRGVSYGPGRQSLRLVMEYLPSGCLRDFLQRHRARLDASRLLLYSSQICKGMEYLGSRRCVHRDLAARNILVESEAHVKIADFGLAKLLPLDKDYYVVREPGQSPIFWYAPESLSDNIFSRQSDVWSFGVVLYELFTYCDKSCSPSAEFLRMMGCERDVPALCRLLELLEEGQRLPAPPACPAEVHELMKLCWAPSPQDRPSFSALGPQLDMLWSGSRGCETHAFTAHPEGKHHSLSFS
The assay can be described thus: IC50 evaluation assay on JAK3 kinase inhibition (Caliper). In kind it is biochemical. To be noted: adenosine triphosphate at Km; 1 hour at 28° C.; average of two tests; read-out: IC50 (nM) inhibiting JAK 3 kinase. The method, then: 1. The compound was dissolved in 100% DMSO, diluted into solutions with appropriate concentration gradients with water according to experimental requirement, and added to a 384-well plate.
2. JAK2 kinase (Carna, Cat. No. 08-045, Lot. No. 07CBS-1927) and JAK3 kinase (Carna, Cat. No. 08-046, Lot. No. 08CBS-0371) were diluted to the optimum concentration with the following buffer solution: 50 mM HEPES, pH 7.5, 0.0015% Brij-35, 2 mM DTT. JAK1 kinase (Carna, Cat. No. 08-144, Lot. No. 11CBS-0144D) was diluted to the optimum concentration with the following buffer solution: 25 mM HEPES pH 7.5, 0.01% Brij-35, 2 mM DTT, 0.01M Triton. Transfer to the 384-well plate and incubated with the compound for a period of time.
3. […] The substrate of JAK1 was diluted to the optimum concentration with the following buffer: 25 mM HEPES, pH 7.5, 0.01% Brij-35, 10 mM MgCl2, 0.01M Triton, adenosine triphosphate at Km. Add to the 384-well plate to initiate there action and react for 1 hour at 28° C.
4. 1 Eq. of sulfuric acid solution was added to terminate the reaction, the conversion rate was read with Caliper Reader. The inhibition rate was calculated as the average of two tests.

Results on 1 molecule are retold here after US10494378B2, “Fused ring pyrimidine compound, intermediate, and preparation method, composition and use thereof” (GUANGZHOU MAXINOVEL PHARMACEUTICALS CO., LTD., priority 2015, dated 2019).

As to `COc1cc(F)ccc1-c1c(C)sc2cnc(Nc3cnn(C4CCN(CCO)CC4)c3)nc12` [Compound 34, 2-[4-(4-{[7-(4-fluoro-2-methoxyphenyl)-6-methylthieno[3,2-d]pyrimidinyl-2-yl]amino}-1H-pyrazol-1-yl)-piperidinyl-1-yl]-1-ethanol], the IC50 stood at 1.1 nM.
